According to patent publication US8603483B2, “Anti-integrin immunoconjugates, methods and uses” (Janssen Biotech, Inc., priority 2004, dated 2013):

Legend:
[1] = test system: A375.S2 human melanoma xenografts; experiment: Advanced s.c. A375.S2 melanoma xenograft in athymic rats, second experiment (FIG. 7); assay type: in vivo, rat; details: i.v., days 14, 16, 18, 23, 31
Procedure: FIG. 7 is a graph showing the growth of human A375.S2 melanoma cells in athymic nude rats. On day 14, when the average tumor volumes reached 250 mm^3, the animals were randomly grouped and the first dose was administered. All animals were sacrificed on day 35. Tumor volumes were expressed as mean+/−SEM (n=9 or 10). The arrows indicate the days of intravenous drug administration.
(§1) The efficacy of CNTO 364 compared to CNTO95 against advanced s.c. A375.S2 human melanoma cells was investigated. CNTO 95-DM1 was prepared by ImmunoGen, Inc. Lot #1716-74B, stock concentration: 2.59 mg/ml. 5 mg/kg of CNTO 95-DM1 is equivalent to 74 μg/kg of DM1. CNTO 95 was from Centocor, Lot #5380-027, stock concentration=20 mg/ml. Human IgG-DM1: ChromPure human IgG was from Jackson ImmunoResearch Laboratories. Human IgG-DM1 was prepared by ImmunoGen, Lot #1762-50, stock concentration 2.8 mg/ml. 5 mg/kg of this conjugate is equivalent to 76 μg/kg of DM1. Maytansine: ImmunoGen, Lot #1710-121, stock concentration=16.38 μg/ml in PBS, pH 6.5. The stock solution of Maytansine was diluted with PBS to 15 and 7.5 μg/ml. PBS: ImmunoGen, pH 6.5. A375.S2 human melanoma cells were purchased from ATCC and subpassaged and stored in frozen aliquots at Centocor Cell Biology Services.
In a second experiment in rats, the average tumor volumes reached to 250 mm^3 on day 14. […]

[2] = test system: A375.S2 human melanoma tumor; experiment: A375.S2 human melanoma xenograft in nude rats, weekly CNTO 95; assay type: in vivo, rat; details: 10 mg/kg i.v. weekly, day 46, p=0.0007
Procedure: FIG. 5 is a graph showing the change volume over time of a human melanoma tumor in nude rats and the effect of administering CNTO 95. Rats were inoculated subcutaneously with A375.S2 cells (3×106), and therapy with CNTO 95 or control was initiated three days later. Rats were treated with CNTO 95 or vehicle once per week at a dose of 10 mg/kg i.v. Each data point is the mean tumor volume from 9 tumor-bearing animals (±SEM).
For rat studies, female nude rats, aged 6-7 weeks, were purchased from Harlan. Twenty rats were inoculated s.c. with A375.S2 cells (3×10^6) in the flank region (day 1). On day 4, rats were randomly assigned to 2 groups. One group was injected i.v. with CNTO 95 (10 mg/kg in PBS), while the other group received an isotype-matched control IgG (10 mg/kg). Dosing was continued weekly thereafter until day 46 (total of 6 doses). Tumors were measured by calipers twice a week and tumor volumes calculated by the formula (length×width2)/2. Body weights were also recorded weekly.
In the rat, CNTO 95 is capable of blocking both rat angiogenic integrins and human tumor cell-expressed integrins. Weekly treatment of tumor-bearing nude rats with CNTO 95 at 10 mg/kg reduced tumor growth compared to the isotype-matched human IgG control MAb (FIG. 5).

[3] = test system: A375.S2 human melanoma cells; experiment: Advanced s.c. A375.S2 melanoma xenograft, first experiment (FIG. 6); assay type: in vivo, athymic nude rats; details: 10 mg/kg i.v., tumors 250-300 mm^3 at start
Procedure: as §1
Nine-week-old athymic nude rats were subcutaneously inoculated with A375.S2 human melanoma cells. On day 14, when average tumor volumes reached to 250-300 mm^3, animals were randomized to groups of 9/10 and treatment initiated. […] The arrows indicate intravenous drug administration.

angiogenesis [4] = experiment: Primate angiogenesis model; assay type: in vivo, cynomulgus monkeys; details: stimulated by bFGF
[5] = test system: A375.S2 human melanoma tumor; experiment: A375.S2 human melanoma xenograft in nude mice, CNTO 95 from day 3; assay type: in vivo, mouse; details: 10 mg/kg i.p. three times per week
Procedure: FIG. 4 is a graph showing the change volume over time of a human melanoma tumor in nude mice and the effect of administering CNTO 95. Mice were inoculated subcutaneously with A375.S2 cells (3×10^6), and dosing with CNTO 95 or control was initiated three days later. Mice were treated with CNTO 95 or vehicle three times per week at a dose of 10 mg/kg i.p. Each data point is the mean tumor volume from 10 tumor-bearing animals (±SEM).
At day 26, CNTO 95 inhibited tumor growth by approximately 80% compared to tumors from control-treated animals.

[6] = test system: tumor and endothelial cells; experiment: In vitro functional assays on tumor and endothelial cells (summary); assay type: cell-based
Excerpt: In addition, CNTO 95 inhibited angiogenesis and tumor growth in vivo.

angiogenesis [7] = experiment: Rat Matrigel angiogenesis model; assay type: in vivo; details: stimulated by bFGF and M21 melanoma cells
HT29 human colon tumor = experiment: HT29 colon carcinoma xenograft in athymic rats, comparison of conjugate linkages; assay type: in vivo, rat
Procedure: An advanced tumor model using subcutaneously implanted HT29 human colon tumor-derived cells in immunocompromised rats was chosen to examine tolerability and potency of various linkages used to prepare immunoconjugates of CNTO 95.
CNTO 95-SPP-DM1 (CNTO 364), CNTO 95-SSNPB-DM4 (CNTO 365), CNTO 95-SSNPP-DM4 (CNTO 366), and the Mab F105 equivalents of these were prepared by ImmunoGen (Cambridge, Mass.). One hundred female athymic rats (4-6 weeks of age) were obtained from Harlan Laboratories.
Human HT29 (ATCC) were cultured in αMEM supplemented with 10% FBS at 37° C. in the presence of 5% CO2. Cells were prepared at a concentration of twenty-five million cells per ml in serum free αMEM for inoculation. Female athymic rats were inoculated with 5×10^6 HT29 cells subcutaneously (0.2 ml of 25×10^6 cells/ml) on the rear flank area (dorsal side, approximately 0.5 inches caudal to the last rib and 0.5 inches from the backbone). All rats were monitored twice per week for the appearance of tumor. The animals were stratified into 13 groups, 6 animals per group based on a mean tumor volume for each group of approximately 250 mm^3. Doses of immunoconjugates were calculated based on the contents of DM1 or DM4 in each conjugate. The L and H represent 175 and 350 μg/kg of DM1 or DM4, respectively. […] All measurements are expressed as the group mean+/−SEM (n=6).

[8] = test system: A549 human non-small cell lung carcinoma cells; experiment: ATPLite cytotoxicity, A549 cells, 96 hrs; assay type: cell-based; details: A549, 96 hrs
Procedure: (§2) Human HT29 human colon carcinoma and human non-small cell lung carcinoma cells A549 (ATCC) were cultured in αMEM supplemented with 10% FBS at 37° C. in the presence of 5% CO2. Cells were seeded into white 96-well tissue culture plates (5000 cells/well) in culture medium and incubated for 16 hrs. Serial dilutions of immunoconjugates were added to each appropraite wells (0-20 μg/ml). Tissue culture plates were incubated at 37° C. for 96 hrs. ATPLIte assay was performed acording manufacturer's instruction. Data was analyzed with GraphPad Prism software using non-liner regression (Table 8) to determine the concentration at half maximal cell number as measured by luminosity.

[9] = test system: HT29 human colon carcinoma cells; experiment: ATPLite cytotoxicity, HT29 cells, 96 hrs; assay type: cell-based; details: HT29, 96 hrs
Procedure: as §2

αvβ5 = αvβ5 (Homo sapiens, UniProt P06756, V783I); experiment: 125-I saturation binding on αvβ5 coated plates
Sequence of αvβ5 (P06756 31-889 V783I limits assumed): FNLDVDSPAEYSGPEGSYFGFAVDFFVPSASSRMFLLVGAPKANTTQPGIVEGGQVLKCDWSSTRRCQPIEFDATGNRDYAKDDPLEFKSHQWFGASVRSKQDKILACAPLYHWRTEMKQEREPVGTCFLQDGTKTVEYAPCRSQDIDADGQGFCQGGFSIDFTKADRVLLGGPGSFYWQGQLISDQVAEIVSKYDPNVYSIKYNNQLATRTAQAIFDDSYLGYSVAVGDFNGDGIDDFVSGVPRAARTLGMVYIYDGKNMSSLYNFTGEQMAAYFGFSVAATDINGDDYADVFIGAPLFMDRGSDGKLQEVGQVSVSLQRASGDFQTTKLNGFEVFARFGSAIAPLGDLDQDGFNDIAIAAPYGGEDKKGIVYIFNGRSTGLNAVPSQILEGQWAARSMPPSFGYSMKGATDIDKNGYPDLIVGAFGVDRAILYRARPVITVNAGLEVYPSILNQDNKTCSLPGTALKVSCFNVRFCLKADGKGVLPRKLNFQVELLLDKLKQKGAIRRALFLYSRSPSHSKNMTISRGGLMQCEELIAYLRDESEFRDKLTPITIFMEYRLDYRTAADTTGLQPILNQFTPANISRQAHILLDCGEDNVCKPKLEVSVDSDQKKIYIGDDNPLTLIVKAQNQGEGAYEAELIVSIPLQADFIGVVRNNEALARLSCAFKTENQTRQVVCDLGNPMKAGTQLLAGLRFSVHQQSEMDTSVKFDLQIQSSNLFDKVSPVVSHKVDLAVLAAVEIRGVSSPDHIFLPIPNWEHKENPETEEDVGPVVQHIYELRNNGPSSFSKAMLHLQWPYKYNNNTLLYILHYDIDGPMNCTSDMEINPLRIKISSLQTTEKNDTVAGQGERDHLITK
Sequence of αvβ5 (P06756 891-1048 limits assumed): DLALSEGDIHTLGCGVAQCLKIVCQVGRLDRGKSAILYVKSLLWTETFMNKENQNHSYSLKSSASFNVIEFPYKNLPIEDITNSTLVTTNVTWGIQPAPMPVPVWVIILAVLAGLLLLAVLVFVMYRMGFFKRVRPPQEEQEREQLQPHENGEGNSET
Sequence of αvβ5 (P18084 24-799 partner): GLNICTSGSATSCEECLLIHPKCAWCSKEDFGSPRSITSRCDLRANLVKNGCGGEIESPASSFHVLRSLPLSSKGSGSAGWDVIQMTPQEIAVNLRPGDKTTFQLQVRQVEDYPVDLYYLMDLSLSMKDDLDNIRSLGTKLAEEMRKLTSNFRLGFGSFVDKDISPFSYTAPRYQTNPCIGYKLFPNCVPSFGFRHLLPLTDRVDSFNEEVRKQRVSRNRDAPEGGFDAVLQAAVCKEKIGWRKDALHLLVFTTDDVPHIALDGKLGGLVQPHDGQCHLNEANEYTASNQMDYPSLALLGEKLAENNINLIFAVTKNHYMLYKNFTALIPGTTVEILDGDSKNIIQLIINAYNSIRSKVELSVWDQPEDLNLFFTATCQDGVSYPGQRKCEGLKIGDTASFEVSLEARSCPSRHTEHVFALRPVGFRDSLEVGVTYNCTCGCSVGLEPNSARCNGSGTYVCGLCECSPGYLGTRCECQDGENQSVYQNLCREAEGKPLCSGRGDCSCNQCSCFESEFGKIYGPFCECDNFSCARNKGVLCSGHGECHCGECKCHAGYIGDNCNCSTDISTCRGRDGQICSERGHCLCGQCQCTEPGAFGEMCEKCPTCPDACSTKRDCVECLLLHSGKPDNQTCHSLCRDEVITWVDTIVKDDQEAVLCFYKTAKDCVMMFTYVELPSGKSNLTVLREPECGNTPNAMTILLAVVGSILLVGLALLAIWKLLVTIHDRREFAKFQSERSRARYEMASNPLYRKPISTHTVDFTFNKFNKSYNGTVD
Procedure: The binding affinity values for purified integrins were compared to binding to receptors expressed on various cell lines using 125-I CNTO 95. A375S2 and M21 cells express both αvβ3 and αvβ5, HT-29 cells express αvβ5. For comparison, other Mabs capable of binding integrins were used. The Kd was calculated from a saturation binding curve in each case using multiple replicates of multiple lots of antibody.

alphaVbeta3 = alphaVbeta3 (Homo sapiens, UniProt P05106+P06756, V783I); experiment: ELISA binding of purified hybridoma antibodies to alphaVbeta3; details: ELISA on alphaVbeta3
Sequence of alphaVbeta3 (P06756 31-889 V783I limits assumed): as the sequence (P06756 31-889 V783I limits assumed) above
Sequence of alphaVbeta3 (P06756 891-1048 limits assumed): as the sequence (P06756 891-1048 limits assumed) above
Sequence of alphaVbeta3 (P05106 27-788): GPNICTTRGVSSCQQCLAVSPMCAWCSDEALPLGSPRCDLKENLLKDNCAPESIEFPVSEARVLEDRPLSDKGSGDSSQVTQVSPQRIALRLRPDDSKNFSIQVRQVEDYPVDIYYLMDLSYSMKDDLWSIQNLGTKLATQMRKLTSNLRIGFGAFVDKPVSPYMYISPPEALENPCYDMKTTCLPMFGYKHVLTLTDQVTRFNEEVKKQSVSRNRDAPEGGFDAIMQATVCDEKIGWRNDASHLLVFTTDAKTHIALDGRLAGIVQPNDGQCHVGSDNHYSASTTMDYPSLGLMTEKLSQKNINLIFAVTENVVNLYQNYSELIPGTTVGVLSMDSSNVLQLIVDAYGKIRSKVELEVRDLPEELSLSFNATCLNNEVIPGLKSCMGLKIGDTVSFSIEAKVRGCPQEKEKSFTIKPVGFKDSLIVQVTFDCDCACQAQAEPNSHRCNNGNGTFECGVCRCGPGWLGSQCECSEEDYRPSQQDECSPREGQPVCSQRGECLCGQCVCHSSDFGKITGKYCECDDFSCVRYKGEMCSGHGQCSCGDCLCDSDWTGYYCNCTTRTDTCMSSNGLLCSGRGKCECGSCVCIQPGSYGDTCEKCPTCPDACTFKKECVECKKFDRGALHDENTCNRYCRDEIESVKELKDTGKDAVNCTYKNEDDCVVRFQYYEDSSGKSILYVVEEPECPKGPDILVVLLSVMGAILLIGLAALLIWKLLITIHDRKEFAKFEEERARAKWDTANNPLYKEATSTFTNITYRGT
Excerpt: Human placenta (disrupted using a meat grinder) or M21 human melanoma cells expressing the αVβ3 integrin were extracted with OTG (Octylthioglucoside Pierce) in buffered saline as described (WO0212501). These preparations were emulsified with an equal volume of complete Freund's adjuvant and used to immunize 15 to 17 week old surgically castrated male mouse (GenPharm, Foster City, Calif.) on days 0 and 14 and in incomplete Freunds on days 28, 48, and 56. Three days later splenocytes were harvested from a mouse showing a titer of 1:1280 against alphaVbeta3 using a solid phase EIA format. Fusion was carried out at a 1:1 ratio of murine myeloma cells (SP2/0) to viable spleen cells. Hybridoma supernatants were screened using the EIA microplate assay or EIA capture assay and selected antibody producing lines expanded and retested for the desired properties.
ELISA analysis confirmed that purified antibody from two hybridomas, C371A (also called Mab CNTO 95) and C372A, bind alphaVbeta3 in a concentration-dependent manner. Fifty percent binding is achieved at 0.07 and 0.7 μg/mL for C372A and CNTO 95 respectively.

COc1cc2cc(c1Cl)N(C)C(=O)C[C@H](OC(=O)[C@H](C)N(C)C(C)=O)[C@]1(C)O[C@H]1[C@H](C)[C@@H]1C[C@@](O)(NC(=O)O1)[C@H](OC)/C=C/C=C(\C)C2 [Maytansine, reference compound]
effect on xenograft tumors (control compounds) [1]: did not show any significant effects

CNTO 95: fully human anti-alphaV integrin monoclonal antibody, human variable and IgG1 kappa constant regions
final tumor size vs isotype-matched control IgG [2]: significant reduction in final tumor size
effect on xenograft tumors (control compounds) [1]: did not show any significant effects
effect on tumor growth / average tumor volume [3]: had no effect
effect on angiogenesis (angiogenesis [4]): blocked angiogenesis
inhibition of tumor growth compared to control-treated animals ([5]; day 26): approximately 80%
tumor growth vs control ([5]; day 26, P=0.0005): significantly inhibited growth of tumors
effect on adhesion, migration, proliferation and invasion [6]: inhibited adhesion, migration, proliferation and invasion
effect on angiogenesis (angiogenesis [7]): blocked angiogenesis

CNTO 365: CNTO 95 conjugated to maytansinoid DM4 with SSNPB or SPDB linker; methyl groups 0:2
complete regression, animals out of 6 (HT29 human colon tumor; high dose (350 microgm/kg of DM4), single injection): 4
regressed preformed colon tumors, animals out of 6 (HT29 human colon tumor; low dose (175 microgm/kg of DM4), Day 7 and Day 21): 2
EC50, concentration at half maximal cell number [8]: 0.3 µg/mL
EC50, concentration at half maximal cell number [9]: 0.24 µg/mL

abciximab: other Mab capable of binding integrins, used for comparison
binding on αvβ5 coated plates (αvβ5): no binding and no dose-response

c7E3 IgG: anti-alphaIIbeta3 antibody
Fifty percent (maximal) binding concentration (alphaVbeta3): 0.07 µg/mL
